Measured values as given in patent publication US20250154154A1 (Relay Binney Street, 2nd Floor, priority 2020, published 2025).

Tests used:
SRC = SRC (Homo sapiens, UniProt P12931); assay: SRC Biochemical Assay Protocol (microfluidic mobility shift assay, FLPeptide4 substrate)
In short: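 Recombinant SRC (0.26 nM) preincubated 30 min at RT with compound (0.0017–100 μM) and 1.5 μM FLPeptide4, then 50 μM ATP added; 90 min reaction in HEPES pH 7.4, 10 mM MgCl2, 1% DMSO, EDTA-quenched. Phosphopeptide quantified by microfluidic mobility shift; IC50 from 4-parameter logistic fit.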

RBE cells = assay: Cell Viability Protocol (CellTiterGlo), RBE cells; type: cell-based; conditions: RBE or SNU-1079 cells, 72 or 120 hour, cell line and time not given
In short: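 RBE cells plated at 1200/well in RPMI 1640 with 10% FBS, incubated 24 h, then dosed with compound from DMSO stocks and incubated 72 or 120 h at 37° C. CellTiterGlo luminescence normalised to DMSO control; IC50 from 4-parameter fit.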

[1] = system: phospho-S6RP (Ser 235/236) in RBE cells; assay: Cellular Proliferation Protocol (cellular phospho-S6RP HTRF), RBE cells; type: cell-based; conditions: 6 hours treatment, RBE or SNU-1079 cells, cell line not given
In short: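 RBE cells, 2000/well, seeded 24 h before 6 h compound treatment at 37° C. Lysates were probed with a Eu-cryptate/d2 HTRF antibody sandwich for phospho-S6RP (Ser 235/236), incubated overnight at room temperature. Signal normalised to DMSO control and IC50 fitted to a 4-parameter curve.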

Chain of SRC (P12931 whole entry, species assumed): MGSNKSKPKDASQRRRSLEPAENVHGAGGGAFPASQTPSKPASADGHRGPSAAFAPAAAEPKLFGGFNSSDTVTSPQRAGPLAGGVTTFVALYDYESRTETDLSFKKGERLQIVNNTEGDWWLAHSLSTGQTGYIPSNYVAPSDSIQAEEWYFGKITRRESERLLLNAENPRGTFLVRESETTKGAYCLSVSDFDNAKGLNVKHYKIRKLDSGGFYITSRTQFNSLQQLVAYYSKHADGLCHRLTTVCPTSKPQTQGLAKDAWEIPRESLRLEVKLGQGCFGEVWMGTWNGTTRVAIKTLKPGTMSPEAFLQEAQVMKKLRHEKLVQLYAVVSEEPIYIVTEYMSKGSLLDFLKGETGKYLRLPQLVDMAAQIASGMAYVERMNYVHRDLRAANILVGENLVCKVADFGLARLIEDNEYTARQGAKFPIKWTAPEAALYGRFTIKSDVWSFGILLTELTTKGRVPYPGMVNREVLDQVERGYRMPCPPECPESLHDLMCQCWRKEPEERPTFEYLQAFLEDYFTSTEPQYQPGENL

Structure (SMILES) | IC50 (SRC) | IC50 (RBE cells) | IC50 ([1]; 6 h) | IC50 [1]
C=CC(=O)NC1(C(=O)N2CCC(C#Cc3c(-c4ccc(Oc5ccccc5)cc4)c4c(N)ncnc4n3C)CC2)CN(C)C1 [II-196, N-(3-(4-((4-amino-7-methyl-5-(4-phenoxyphenyl)-7H-pyrrolo[2,3-d]pyrimidin-6-yl)ethynyl)piperidine-1-carbonyl)-1-methylazetidin-3-yl)acrylamide] | 10 to 1000 nM | ≤ 10 nM | ≤ 10 nM | 
C=CC(=O)N1C[C@@H]2[C@@H](C#Cc3c(-c4ccc(Oc5cccc(C)n5)c(OC)c4)c4c(N)ncnc4n3CCCS(C)(=O)=O)[C@@H]2C1 [II-279] | 10 to 1000 nM | 10 to 1000 nM | 10 to 1000 nM | 
Cn1c(C#C[C@@H]2[C@H]3CN(C(=O)/C=C/CN4CCC(F)C4)C[C@@H]23)c(-c2ccc(Oc3cccc(F)c3)cc2)c2c(N)ncnc21 (stereo partly drawn) [II-234, (E)-1-((1R,5S,6s)-6-((4-amino-5-(4-(3-fluorophenoxy)phenyl)-7-methyl-7H-pyrrolo[2,3-d]pyrimidin-6-yl)ethynyl)-3-azabicyclo[3.1.0]hexan-3-yl)-4-(3-fluoropyrrolidin-1-yl)but-2-en-1-one] | 10 to 1000 nM | 10 to 1000 nM | 10 to 1000 nM | 
C=CC(=O)N1C[C@@H]2[C@@H](C#Cc3c(-c4ccc(Cl)c(OC)n4)c4c(N)ncnc4n3C(C)C)[C@@H]2C1 [II-62] | ≤ 10 nM | 10 to 1000 nM |  | 10 to 1000 nM
C=CC(=O)N1C[C@@H]2[C@@H](C#Cc3c(-c4ccc(F)c5c4OCO5)c4c(N)ncnc4n3C)[C@@H]2C1 [II-130] | ≤ 10 nM | 10 to 1000 nM |  | 10 to 1000 nM
C=CC(=O)N1CCC(N2CC(F)(C#Cc3c(-c4ccc(Oc5cccc(C)n5)cc4)c4c(N)ncnc4n3C)C2)CC1 [II-203, 1-(4-[3-[2-(4-amino-7-methyl-5-[4-[(6-methylpyridin-2-yl)oxy]phenyl]-7H-pyrrolo [2,3-d]pyrimidin-6-yl)ethynyl]-3-fluoroazetidin-1-yl]piperidin-1-yl)prop-2-en-1-one] | 10 to 1000 nM | 10 to 1000 nM | 10 to 1000 nM | 
C=CC(=O)N1CC2(CC(C#Cc3c(-c4ccc(Oc5ccccc5)cc4)c4c(N)ncnc4n3C(C)C)C2)C1 [Example I-19] | ≤ 10 nM | ≤ 10 nM | ≤ 10 nM | 
C=CC(=O)N1CC[C@@H](N2CC(C#Cc3c(-c4cccc(OC)n4)c4c(N)ncnc4n3C)C2)[C@@H](O)C1 [II-61] | 10 to 1000 nM | 1000 to 10000 nM |  | 10 to 1000 nM
C=CC(=O)N1CC[C@H](N2CC(C#Cc3c(-c4ccc(Oc5cccc(C)n5)cc4)c4c(N)ncnc4n3C)C2)[C@H](F)C1 [II-202, 1-((3R,4S)-4-(3-((4-amino-7-methyl-5-(4-(6-methylpyridin-2-yloxy)phenyl)-7H-pyrrolo[2,3-d]pyrimidin-6-yl)ethynyl)azetidin-1-yl)-3-fluoropiperidin-1-yl)prop-2-en-1-one] | 10 to 1000 nM | 10 to 1000 nM | 10 to 1000 nM | 
C=CC(=O)N1CC[C@@H](N2CC(C#Cc3c(-c4ccc5c(c4)OCCN5C)c4c(N)ncnc4n3C)C2)[C@@H](O)C1 [II-75] | 1000 to 10000 nM | 1000 to 10000 nM |  | 1000 to 10000 nM
C=CC(=O)N1C[C@@H]2[C@@H](C#Cc3c(-c4ccc(Oc5ccccc5)cc4OC)c4c(N)ncnc4n3C3CCOC3)[C@@H]2C1 (mixture of isomers) [II-40] | ≤ 10 nM | ≤ 10 nM |  | ≤ 10 nM
C=CC(=O)N1CC[C@@H](N2CC(C#Cc3c(-c4ccc5c(c4)N(C)CCO5)c4c(N)ncnc4n3C)C2)[C@@H](O)C1 [II-77] | 1000 to 10000 nM | 1000 to 10000 nM |  | 1000 to 10000 nM
C=CC(=O)N1CCC(N2CC(C#Cc3c(-c4ccccc4OC)c4c(N)ncnc4n3C)C2)CC1 [II-268] | 10 to 1000 nM | 1000 to 10000 nM | 1000 to 10000 nM | 
C=CC(=O)N1CC[C@@H](N2CC(C#Cc3c(-c4ccc(OC)cc4)c4c(N)ncnc4n3C)C2)[C@@H](O)C1 [II-25] | 10 to 1000 nM | 10 to 1000 nM |  | 10 to 1000 nM
C=CC(=O)N1C[C@@H]2[C@@H](C#Cc3c(-c4ccc(Oc5ccccc5)cc4Cl)c4c(N)ncnc4n3C)[C@@H]2C1 [II-48] | 10 to 1000 nM | ≤ 10 nM |  | ≤ 10 nM
C=CC(=O)N1CCC(N2CC(C#Cc3c(-c4cccc(OC)n4)c4c(N)ncnc4n3C)C2)CC1 [II-92] | 10 to 1000 nM | 10 to 1000 nM |  | 10 to 1000 nM
C=CC(=O)N1CCC(C#Cc2c(-c3ccc(Oc4ccccc4)cc3)c3c(N)ncnc3n2C(C)C(=O)OC)CC1 (stereo not drawn) [Example I-42] | 10 to 1000 nM | 10 to 1000 nM | 10 to 1000 nM | 

Structure (SMILES) | IC50 (SRC) | IC50 (RBE cells) | IC50 ([1]; 6 h) | IC50 [1]
C=CC(=O)N1CC[C@@H](N2CC(C#Cc3c(-c4ccc(Oc5cccc(C)n5)cc4OC)c4c(N)ncnc4n3C)C2)[C@@H](O)C1 [II-19] | 10 to 1000 nM | 1000 to 10000 nM |  | 10 to 1000 nM
C=CC(=O)N1C[C@@H]2[C@@H](C#Cc3c(-c4ccc(Oc5cccc(C)n5)c5c4OCO5)c4c(N)ncnc4n3C)[C@@H]2C1 [II-135] | 10 to 1000 nM | 10 to 1000 nM |  | 10 to 1000 nM
CN(C)C/C=C/C(=O)N1CC2(CC(C#Cc3c(-c4ccc(Oc5ccccc5)cc4)c4c(N)ncnc4n3C3CC(=O)N(C)C3)C2)C1 (stereo not drawn) [II-193, (E)-4-(4-amino-6-((2-(4-(dimethylamino)but-2-enoyl)-2-azaspiro[3.3]heptan-6-yl)ethynyl)-5-(4-phenoxyphenyl)-7H-pyrrolo[2,3-d]pyrimidin-7-yl)-1-methylpyrrolidin-2-one] | 10 to 1000 nM | 1000 to 10000 nM | 1000 to 10000 nM | 
C=CC(=O)N1CC[C@H](N2CC(C#Cc3c(-c4ccc(Oc5ccccc5)cc4)c4c(N)ncnc4n3C)C2)[C@H](F)C1 [II-170, 1-((3R,4S)-4-(3-((4-amino-7-methyl-5-(4-phenoxyphenyl)-7H-pyrrolo[2,3-d]pyrimidin-6-yl)ethynyl)azetidin-1-yl)-3-fluoropiperidin-1-yl)prop-2-en-1-one] | 10 to 1000 nM | ≤ 10 nM | ≤ 10 nM | 
C=CC(=O)N1CCC(C#Cc2c(-c3ccc(Oc4ccccc4)cc3)c3c(N)ncnc3n2CCN2CCN(C)CC2)CC1 [Example I-52] | 10 to 1000 nM | 10 to 1000 nM | 10 to 1000 nM | 
C=CC(=O)N1C[C@@H]2[C@@H](C#Cc3c(-c4cc(Cl)ccc4OC)c4c(N)ncnc4n3C)[C@@H]2C1 [II-260] | 10 to 1000 nM | 10 to 1000 nM | 10 to 1000 nM | 
C=CC(=O)N1CC[C@H](N2CC(C#Cc3c(-c4ccc(Oc5ccccc5)c(OC)c4)c4c(N)nccc4n3C)C2)[C@H](O)C1 [II-79] | 10 to 1000 nM | 10 to 1000 nM |  | 10 to 1000 nM
C=CC(=O)N1CCC(C#Cc2c(-c3ccc(Oc4ccccc4)cc3)c3c(N)ncnc3n2C2CCOC2)CC1 (stereo not drawn) [Example I-32] | 10 to 1000 nM | 10 to 1000 nM | ≤ 10 nM | 
C=CC(=O)N1CCN(C2CC(C#Cc3c(-c4ccc(Oc5ccccc5)cc4)c4c(N)ncnc4n3C)C2)C(=O)C1 (stereo not drawn) [II-166, 4-acryloyl-1-(3-((4-amino-7-methyl-5-(4-phenoxyphenyl)-7H-pyrrolo[2,3-d]pyrimidin-6-yl)ethynyl)cyclobutyl) piperazin-2-one] | ≤ 10 nM | ≤ 10 nM | ≤ 10 nM | 
C=CC(=O)N1C[C@@H]2[C@@H](C#Cc3c(-c4ccc(Oc5cccc(C)n5)cc4)c4c(N)ncnc4n3C3CCOC3)[C@@H]2C1 (mixture of isomers) [II-24] | ≤ 10 nM | ≤ 10 nM |  | ≤ 10 nM
C=CC(=O)N1CCC(N2CC(C#Cc3c(-c4ccc(Oc5ccccc5)cn4)c4c(N)ncnc4n3C)C2)CC1 [II-313] | 10 to 1000 nM | 10 to 1000 nM |  | 10 to 1000 nM
C=CC(=O)N1CCC(C#Cc2c(-c3ccc(Br)c(OC)c3)c3c(N)ncnc3n2C(C)C)CC1 [II-160, 1-(4-((4-amino-5-(4-bromo-3-methoxyphenyl)-7-isopropyl-7H-pyrrolo[2,3-d]pyrimidin-6-yl)ethynyl)piperidin-1-yl)prop-2-en-1-one] | ≤ 10 nM | 10 to 1000 nM | 10 to 1000 nM | 
C=CC(=O)N1CCC(N2CC(C#Cc3c(-c4ccc(Cl)c(CF)c4)c4c(N)ncnc4n3C)C2)CC1 [II-89] | 10 to 1000 nM | 10 to 1000 nM |  | 10 to 1000 nM
Cn1c(C#CC2CC3(C2)CN(C(=O)/C=C/CN2CC(F)C2)C3)c(-c2ccc(Oc3ccccc3)cc2)c2c(N)ncnc21 [II-175, (E)-1-(6-((4-amino-7-methyl-5-(4-phenoxyphenyl)-7H-pyrrolo[2,3-d]pyrimidin-6-yl)ethynyl)-2-azaspiro[3.3]heptan-2-yl)-4-(3-fluoroazetidin-1-yl)but-2-en-1-one] | 10 to 1000 nM | ≤ 10 nM | 10 to 1000 nM | 
C=CC(=O)N[C@H](CO)C(=O)N1CCC(C#Cc2c(-c3ccc(Oc4cccc(C)n4)cc3)c3c(N)ncnc3n2C)CC1 [II-200, (R)-N-(1-(4-((4-amino-7-methyl-5-(4-((6-methylpyridin-2-yl)oxy)phenyl)-7H-pyrrolo[2,3-d]pyrimidin-6-yl)ethynyl)piperidin-1-yl)-3-hydroxy-1-oxopropan-2-yl)acrylamide] | 10 to 1000 nM | 10 to 1000 nM | 10 to 1000 nM | 
C=CC(=O)NCC(=O)N1C[C@@H]2[C@@H](C#Cc3c(-c4c(Cl)ccc5c4OCO5)c4c(N)ncnc4n3C)[C@@H]2C1 [II-39] | ≤ 10 nM | ≤ 10 nM |  | ≤ 10 nM
C=CC(=O)N1CCC(N2CC(C#Cc3c(-c4ccc(Cl)c(F)c4)c4c(N)ncnc4n3C)C2)CC1 [II-96] | 10 to 1000 nM | 10 to 1000 nM |  | 10 to 1000 nM
